The test system of experiment [1] is SALL4. The experiment can be described thus: SALL4 degradation by immunoblotting in Tera-1 cells. Format: cell-based, human. The settings on record: 0.000128-10 μM, 4 hours. The source says: It has been reported that a cereblon (CRBN)-binding therapeutic such as a thalidomide-based compound can cause severe congenital abnormalities such as forelimb shortening or brachydactyly, which are closely associated with the decomposition of SALL4.
To this end, the Tera-1 cell line (HTB-105), which is a human embryonic carcinoma cell line, was purchased from the American Type Culture Collection (ATCC, Manassas, VA, USA) and used, and then cultured using a DMEM medium (Corning, MD, USA) supplemented with 10% fetal bovine serum (Corning, MD, USA), 100 U/ml of penicillin (Corning, MD, USA), and 100 μg/ml streptomycin (Corning, MD, USA) at 37° C. in a 5% CO2 incubator.
The cells were disrupted by adding a RIPA buffer containing a protease inhibitor cocktail (Thermo Fisher Scientific), and centrifuged at 14,000 rpm for 15 minutes at 4° C. to obtain a cell extract. Equal amounts of the cell extract were loaded, and proteins were separated by SDS-PAGE and then transferred to a PVDF membrane. The protein-transferred membrane was blocked using skim milk, incubated with a primary antibody for 3 hours at room temperature, and then incubated with an HRP-conjugated secondary antibody for 1 hour at room temperature. The resulting product was washed with TBS-T three times between steps. […]
Background: Immunoblotting shows a protein as a band on a membrane.

In experiment [2] the test system is BV-2 cells. The experiment can be described thus: Nitrite content in culture solution of LPS-stimulated BV-2 cells (Griess Reagent System). Type of experiment: cell-based, mouse. The settings on record: BV-2 cells, 3.33, 10 or 30 μM, 1 μg/mL LPS, 24 hours. The procedure:
To further confirm the oxidative stress suppression effect, the content of nitrite released due to an inflammatory response and the expression levels of iNOS, which is an enzyme that produces nitric oxide, and COX-2, which is cyclooxygenase-2, were determined in mouse microglial cells (BV-2, ATCC, Manassas, VA, USA).
To determine the content of nitrite and the protein expression levels of iNOS and COX-2, BV-2 was seeded in a 12-well plate (Corning, MD, USA) at 1.5×10^5 cells/well, and cultured using a DMEM medium (Corning, MD, USA) containing 10% fetal bovine serum (Corning, MD, USA) and 100 U/ml of penicillin/streptomycin (Corning, MD, USA) at 37° C. in a 5% CO2 incubator for one day for stabilization. […] 1 μg/mL of LPS (Sigma, USA) was added to all experimental groups excluding the non-inflammation-induced group and allowed to react at 37° C. in a 5% CO2 incubator for 24 hours.
The cell culture solution was collected to measure the content of nitrite, and centrifuged at 3,000 rpm for 5 minutes to obtain a supernatant. The concentration of nitrite in the cell culture solution was measured using a microplate reader (NEO2MALPHAB Synergy Neo-2, BioTek, CA, US) according to the manual of the Griess Reagent System (#G2930, Promega, WI, USA).
For orientation: Nitrite, measured by Griess reagent, commonly stands in for NO production.

For experiment [3], the system named is mouse model with Parkinson's disease induced by MPTP administration. The experiment can be described thus: Pillar test in MPTP-induced Parkinson's disease mouse model. Format: in vivo. The settings on record: MPTP mice, oral. The procedure: (§1) To cause the disease, mice in the G2, G3, G4, and G5 groups were administered MPTP dissolved in saline via an intraperitoneal route at 2-hour intervals four times a day (20 mg/kg/time), while the G1 group received the same amount of saline.
Using a wooden pillar (length: 80 cm, diameter: 0.8˜1 cm) placed vertically on the cage floor, mice were trained to turn around from the top of the pillar in the opposite direction and descend to the bottom three times a day on days 2-3 of the test. On day 4 of the test, the same test was performed three times, and the time it took to change direction from the top and descend.

Experiment [4] relates to tyrosine hydroxylase (TH). The experiment in a line: Immunohistochemical test of tyrosine hydroxylase in brain of MPTP mice. Format: in vivo, mouse. The settings on record: oral, versus MPTP group. The procedure:
as §1
After the end of the test on day 7, the brain tissue of the sacrificed mice was collected, sectioned, and analyzed.
Six mice per group were fixed by perfusion with saline followed by perfusion with 4% paraformaldehyde (Biosesang, cat #PC2031-000-00). Each brain tissue was rapidly frozen after isolation and stored at −80° C. until tissue sectioning. Sections for immunohistochemical testing were embedded in an OCT compound (SAKURA, cat #4583), samples were sectioned into 20 μm-thick sections using a cryomicrotome, Leica CM1950 (Leica Microsystems, Germany), and each section was stored at 4° C. until an antibody reaction. […] Images stained with the tyrosine hydroxylase antibody were observed under a microscope (Olympus, SZ61, BX51), and the OD values, which are immunostaining-positive, observed in the striatum and substantia nigra tissue were measured and analyzed by the Image J program.

Take `Nc1cccc2c1C(=S)N(C1CCC(=O)NC1=O)C2=O` (stereo not drawn) [3-MP, 3-thiopomalidomide]: in experiment [1], the “decomposition of SALL4” value is reported as “less decomposition of SALL4 than pomalidomide”. For the same compound, the “amount of nitrite released by LPS” value in experiment [2] was “effectively reduced the amount of the residual nitrite released by LPS”. Besides, the pillar descent time entry in experiment [3] (90 mg/kg) was “recovered to a level similar to that of the vehicle administration group”; in experiment [3] (all doses (10, 30, 90 mg/kg/day), versus MPTP group) it was “reduced to a statistically significant level”. Also, the “expression of tyrosine hydroxylase in the substantia nigra” value in experiment [4] (30 and 90 mg/kg) is on record as “increased in a statistically significant manner”. In addition, the “expression of tyrosine hydroxylase (TH) in the striatum” value in experiment [4] (all doses, particularly 30 mg/kg) was “significantly increased”.

For the origin of these results see patent US20250161286A1 (AEVIS BIO, INC., priority 2022, published 2025).
